Laboratory results published in US5106851A, “Benzofused-N-containing heterocycle derivatives” (Istituto de Angeli S.p.A., priority 1989, dated 1992).
Where two headings read alike, the source gives them in different places.

Legend:
[1] = test system: muscarinic responses in guinea pig longitudinal ileum and guinea pig paced left atria; conditions: prototype compound, in words; cited from earlier work
[2] = test system: Muscarinic receptors in the heart; assay: In vivo inhibition of acetylcholine-induced bradycardia in the anaesthetized guinea pig; conditions: Cavia porcellus, iv, 5 min; i.v., 5 min before acetylcholine 50 μg/kg; dose in mol/kg; read-out: -log ED50, heart (converted)
Protocol: (§1) Guinea pigs of either sex (550-600 g) were anaesthetized with urethane (1.4 g/kg, i.p.). A jugular vein was cannulated for injection of drugs. Heparin (200 I.U./kg) was injected i.v. A cannula was placed in the trachea and the animals were artificially respirated with oxygenated room air by means of a positive pressure pump (Braun-Melsungen) with a rate of 80 strokes/min. A side arm of the tracheal cannula was connected to a water manometer of 10 cm height. The respiratory volume was adjusted so that the maximal intratracheal pressure during inspiration just attained to a pressure of 10 cm water.
A cannula was placed in the left common carotid artery and arterial blood pressure was measured via a Bell and Howell 4-327 I pressure transducer connected to an IFD recording device. Cardiac frequency was measured by a ratemeter, triggered by the arterial pulsewave.
The drugs to be tested were injected via the jugular vein and 5 min later bronchial resistence (%) and the decrease in cardiac frequence (beats/min) to acetylcholine (50 μg/kg i.v. and i.a.) was measured. Dose response curves were constructed by plotting the percent inhibition of bronchoconstriction and bradycardia against the logarithm of the dose (mol/kg) of the drugs to be tested.

[3] = test system: Muscarinic receptors in the bronchi; assay: In vivo inhibition of acetylcholine-induced bronchoconstriction in the anaesthetized guinea pig; conditions: Cavia porcellus, iv, 5 min; i.v., 5 min before acetylcholine 50 μg/kg; dose in mol/kg; read-out: -log ED50, bronchi (converted)
Protocol: as §1
Excepts for some modifications, the effects of the drugs on bronchial tone was measured according to the method described by Konzett and Rossler (1940). The bronchoconstriction-evoked volume of respiratory gas mixture (overflow) passing through the water manometer was measured by means of a FLEISCH tube pneumotachometer (Model 0000) connected to a SP 2040 D differential pressure transducer (HSE). Registration was performed on a IFD recording device. […]
The drugs to be tested were injected via the jugular vein and 5 min later bronchial resistence (%) and the decrease in cardiac frequence (beats/min) to acetylcholine (50 μg/kg i.v. and i.a.) was measured. […]

[4] = biological target: T1, Muscarinic M1 (Rattus norvegicus, UniProt P08482); assay: Displacement of 3H-pirenzepine from cerebral cortex homogenate (receptor binding studies in vitro)
T1 construct: displacement of ^3 H-pirenzepine from cerebral cortex homogenate; from tissue; host or cells: rat cerebral cortex homogenate
T1 sequence (P08482 1-460): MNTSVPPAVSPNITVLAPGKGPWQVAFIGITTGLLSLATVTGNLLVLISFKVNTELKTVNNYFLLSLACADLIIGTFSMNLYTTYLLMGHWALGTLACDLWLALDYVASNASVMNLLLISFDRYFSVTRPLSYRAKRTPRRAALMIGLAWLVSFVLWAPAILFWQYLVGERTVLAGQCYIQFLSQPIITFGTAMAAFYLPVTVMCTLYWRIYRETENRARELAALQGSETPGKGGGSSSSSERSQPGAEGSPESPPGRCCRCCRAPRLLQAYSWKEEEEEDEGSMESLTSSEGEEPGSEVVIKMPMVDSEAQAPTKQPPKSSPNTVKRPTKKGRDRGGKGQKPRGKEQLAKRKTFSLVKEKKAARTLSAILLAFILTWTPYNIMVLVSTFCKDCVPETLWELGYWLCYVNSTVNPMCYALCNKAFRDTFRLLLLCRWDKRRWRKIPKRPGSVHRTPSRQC
Protocol: (§2) Muscarinic M1 activity was determined by studying the displacement of ^3 H-pirenzepine from cerebral cortex homogenate according to the procedure reported below: The cerebral cortex donors were male CD-COOBBS rats, 220-250 g body weight. The homogenization process was carried out in a Potter-Evelhjem apparatus in the presence of Na^+ /Mg^++ HEPES buffer; pH 7.4 (100 mM NaCl, 10 mM MgCl2, 20 mM HEPES); by filtering the suspension through two layers of cheesecloth. Binding curves for the under study compounds were derived indirectly from competition experiments against 0.5 nM ^3 H-pirenzepine labelling the muscarinic receptors of the cerebral cortex. 1 ml of the homogenate was incubated for 45 min at 30° C. in the presence of a maker ligand and different concentration of the cold ligand, conditions under which equilibrium was reached as determined by appropriate association experiments. The incubation was terminated by centrifugation (12,000 rpm for 3 min) at room temperature using an Eppendorf microcentrifuge. The resultant pellet was washed twice with 1.5 ml saline to remove the free radioactivity and it was allowed to dry. The tips of the tubes containing the pellet were cut off and 200 μl of tissue solubilizer (Lumasolve, Lumac) were added and left to stand overnight. Radioactivity was then counted after addition of 4 ml of liquid scintillation mixture (Dimilume/Toluene 1+10 v:v, Packard).
(§3) Assays were carried out in triplicate or quadruplicate and the non-specificbinding was defined as the radioactivity bound or entrapped in the pellet when the incubation medium contained 1 μM atropine sulphate. Non-specific binding averaged less than 30%. KD values (dissociation constants) were obtained by non-linear regression analysis on the basis of one binding site model with TOPFIT-pharmacokinetic programme package (G. Heinzel "Pharmacokinetics During Drug Development: Data Analysis and Evaluation Techniques" Eds. G. Bolzer and J. M. Van Rossum; p. 207, G. Fisher, New York, 1982) after correction for the radioligand occupancy shift according to the equation: KD =IC50 /1+*C/*KD, where *C and *KD represent the concentration and the dissociation constants of the radioligand, used respectively. Muscarinic M2 activity was examined by studing the displacement of ^3 H-NMS from total heart homogenate according to a procedure identical to the one already described hereinbefore for the muscarinic M1 activity.

[5] = biological target: T2, guinea pig left atria (Cavia porcellus, UniProt H0VRN8); assay: Functional studies in vitro, guinea pig paced left atria, bethanechol negative inotropic effect
T2 construct: guinea pig paced left atria; from tissue; host or cells: isolated guinea pig left atria
T2 sequence (H0VRN8 1-466): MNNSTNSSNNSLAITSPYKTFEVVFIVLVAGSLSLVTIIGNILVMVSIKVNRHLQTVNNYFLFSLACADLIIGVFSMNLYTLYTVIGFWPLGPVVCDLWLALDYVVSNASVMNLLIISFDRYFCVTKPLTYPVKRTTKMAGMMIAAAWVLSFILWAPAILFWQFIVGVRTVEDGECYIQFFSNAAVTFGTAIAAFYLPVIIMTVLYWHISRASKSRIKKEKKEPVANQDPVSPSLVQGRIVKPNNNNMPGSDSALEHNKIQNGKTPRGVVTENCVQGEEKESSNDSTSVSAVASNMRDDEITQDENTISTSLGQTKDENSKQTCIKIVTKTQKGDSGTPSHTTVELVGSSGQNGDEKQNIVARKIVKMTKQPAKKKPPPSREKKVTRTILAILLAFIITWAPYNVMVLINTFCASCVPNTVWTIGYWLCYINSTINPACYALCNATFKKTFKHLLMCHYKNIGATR
From the text: (§4) Antimuscarinic activity and selectivity were examined in in vitro by receptor binding studies in two tissues endowed with M1 and M2 muscarinic receptors (cerebral cortex, heart), in functional studies in isolated guinea pig ileum and guinea pig paced left atria and in in vivo functional tests on bronchi and heart of the anaesthetized guinea pig.
The tissues were mounted in the Ewen's solution (millimolar: NaCl, 131.6; KCl, 5.6; CaCl2, 2.16; NaHCO3, 24.9; NaH2 PO4, 1.03; glucose, 11; and sucrose, 13) at 32° C. and stimulated through platinum electrodes by squarewave pulses (2 msec, 3 Hz, 100% above threshold voltage, delivered by a Grass S 48 stimulator). Inotropic activity was recorded isometrically (Statham transducer, Battaglia Rangoni ESO 300 recorder). Cumulative concentrations of bethanecol (1-30 μM) were used to induce a negative inotropic effect. Kb values were estimated as above described.

[6] = biological target: T3, Muscarinic M2 (Rattus norvegicus, UniProt P10980); assay: Displacement of 3H-NMS from total heart homogenate (receptor binding studies in vitro)
T3 construct: displacement of ^3 H-NMS from total heart homogenate; from tissue; host or cells: total heart homogenate
T3 sequence (P10980 1-466): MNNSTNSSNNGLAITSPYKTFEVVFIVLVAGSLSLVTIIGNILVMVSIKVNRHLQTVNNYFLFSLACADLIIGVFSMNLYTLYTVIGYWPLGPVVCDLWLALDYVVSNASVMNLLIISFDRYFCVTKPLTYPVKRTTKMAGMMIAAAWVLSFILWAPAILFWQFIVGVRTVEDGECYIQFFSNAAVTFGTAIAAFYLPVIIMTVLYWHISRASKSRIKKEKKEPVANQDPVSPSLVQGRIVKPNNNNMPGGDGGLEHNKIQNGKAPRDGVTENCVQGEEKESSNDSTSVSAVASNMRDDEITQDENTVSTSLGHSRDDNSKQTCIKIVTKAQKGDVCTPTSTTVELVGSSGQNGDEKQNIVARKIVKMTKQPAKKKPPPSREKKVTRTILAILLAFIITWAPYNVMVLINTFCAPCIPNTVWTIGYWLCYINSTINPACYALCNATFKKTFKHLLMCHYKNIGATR
Protocol: as §2, §3

[7] = biological target: T4, guinea pig ileum (Cavia porcellus, UniProt H0W1Z3); assay: Functional studies in vitro, isolated guinea pig ileum contracted with bethanechol
T4 construct: A 2 cm section of terminal ileum was prepared; from tissue; host or cells: isolated guinea pig terminal ileum
Protocol: as §4
Responses were recorded isotonically. Kb values were calculated according to Arunlakshana and Shild (British Journal of Pharmacology 14, 48-54, 1959).

[8] = test system: receptors with low affinity to Pirenzepine (M2 type); conditions: mainly in effector organs; cited from earlier work
[9] = total heart homogenate, 3H-NMS, read-out: KD, M2 (heart)

T4 sequence (H0W1Z3 1-590): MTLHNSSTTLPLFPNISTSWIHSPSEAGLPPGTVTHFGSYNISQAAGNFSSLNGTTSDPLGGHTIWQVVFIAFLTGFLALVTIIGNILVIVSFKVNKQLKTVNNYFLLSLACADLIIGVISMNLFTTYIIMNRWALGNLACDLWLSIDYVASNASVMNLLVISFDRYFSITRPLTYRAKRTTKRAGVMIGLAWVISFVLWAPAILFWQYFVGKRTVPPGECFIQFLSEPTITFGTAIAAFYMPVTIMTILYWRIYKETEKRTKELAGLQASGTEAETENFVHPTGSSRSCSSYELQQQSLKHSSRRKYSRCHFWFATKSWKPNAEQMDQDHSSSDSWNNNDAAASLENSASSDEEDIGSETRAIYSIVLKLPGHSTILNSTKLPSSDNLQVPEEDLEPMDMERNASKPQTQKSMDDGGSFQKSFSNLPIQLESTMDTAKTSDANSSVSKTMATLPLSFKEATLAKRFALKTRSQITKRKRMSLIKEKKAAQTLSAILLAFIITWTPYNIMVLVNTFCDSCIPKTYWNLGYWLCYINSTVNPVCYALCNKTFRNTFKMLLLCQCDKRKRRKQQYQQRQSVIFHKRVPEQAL

SMILES: CCN(CC)CC1CCCCN1CC(=O)N1c2ccccc2C(=O)Nc2cccnc21 (centres unmarked) [AF-DX-116, 11-2-{[2-(diethylamino)methyl-1-piperidinyl]acetyl}-5,11-dihydro-6H-pyrido (2,3-b)(1,4)benzodiazepin-6-one]
- tissue selectivity among muscarinic antagonists [1]: cardioselective

SMILES: C[N+]1(C)CCC(OC(=O)C(c2ccccc2)c2ccccc2)CC1 [Compound 4-DAMP, 4-diphenylacetoxy-N-methylpiperidine methobromide]
- tissue selectivity among muscarinic antagonists [1]: smooth muscle selective

SMILES: CN1[C@@H]2CC[C@H]1C[C@@H](OC(=O)N1Cc3ccccc3NC1=O)C2 [Compound 16, 1,4-dihydro-2(H)-2-oxo-3-quinazoline carboxylic acid-(endo-8-methyl-8-azabicyclo[3.2.1]oct-3-yl), ester]
- ED50 [2]: 1 µmol/kg
- ED50 [3]: 0.00794 µmol/kg
- Kd ([4]; cerebral cortex homogenate, 0.5 nM 3H-pirenzepine, 45 min at 30° C., pH 7.4, read-out: KD, M1 (cortex)): 1 nM
- Kb [5]: 122 nM
- Kd [6]: 133 nM
- Kb [7]: 1.5 nM

SMILES: CN1[C@@H]2CC[C@H]1C[C@@H](NC(=O)N1Cc3ccccc3NC1=O)C2 [Compound 23, N-(endo-8-methyl-8-azabicyclo[3.2.1]oct-3-yl)-1,4-dihydro-2(H)-2-oxo-3-quinazoline carboxamide]
- Kd [4]: 1 nM
- Kb ([5]; functional studies, guinea pig paced left atria, bethanechol 1-30 μM, 32° C., read-out: Kb, heart): 22 nM
- Kd [6]: 60 nM
- Kb ([7]; functional studies, guinea pig ileum, bethanechol 0.3-10 μM, read-out: Kb, ileum): 0.6 nM

SMILES: CN1[C@@H]2CC[C@H]1C[C@@H](OC(=O)N1Cc3ccc(Cl)cc3NC1=O)C2 [Compound 25, 7-chloro-1,4-dihydro-2(H)-2-oxo-3-quinazoline carboxylic acid-(endo-8-methyl-8-azabicyclo[3.2.1]oct-3-yl), ester]
- Kd [4]: 7 nM
- Kb [5]: 2200 nM
- Kd [6, 9]: 1470 nM
- Kb [7]: 16 nM

SMILES: CN1[C@@H]2CC[C@H]1C[C@@H](OC(=O)N1Cc3cc(F)ccc3NC1=O)C2 [Compound 26, 1,4-dihydro-6-fluoro-2(H)-2-oxo-3-quinazoline carboxylic acid-(endo-8-methyl-8-azabicyclo[3.2.1]oct-3-yl), ester]
- Kd [4]: 3 nM
- Kb [5]: 250 nM
- Kd [6, 9]: 400 nM
- Kb [7]: 4.5 nM

SMILES: CN1C2CCC1CC(OC(=O)N1C(=O)Nc3ccccc3C1O)C2 (stereo not drawn) [Compound 49, 1,4-dihydro-4-hydroxy-2(H)-2-oxo-3-quinazolinecarboxylic acid-(endo-8-methyl-8-azabicyclo[3.2.1]oct-3-yl), ester]
- Kd [4]: 2 nM
- Kb [5]: 75 nM
- Kd [6, 9]: 250 nM
- Kb [7]: 1 nM

SMILES: CN1CCN(CC(=O)N2c3ccccc3C(=O)Nc3cccnc32)CC1 [Pirenzepine]
- affinity at M2 type receptors [8]: low affinity

SMILES: CC(C[N+](C)(C)C)OC(N)=O (centres unmarked) [bethanechol, reference compound]
- EC50 ([7]; guinea pig terminal ileum, Tyrode solution, cumulative conc. 0.3-10 μM, read-out: EC50 of bethanechol (contraction)): 1500 nM
